Assay results published in patent publication US9156811B2 (priority 2008, dated 2015).
Read-outs that look alike come from different tables or passages of the source.

Columns and labels:
[1] = test system: Trypanosome (T. brucei brucei); test: In-vitro antitrypanosomal efficacy assay (cell growth, resazurin); format: cell-based
[2] = CNS penetration: drug concentration in blood and brain after i.v. dosing; format: in vivo; conditions: iv, female NMRI mouse, t = 5 min; for Kp at 5 min: brain / whole blood; for concentration at 5 min: average of three animals
[3] = target: T. brucei N-myristoyl transferase (Trypanosoma brucei brucei (strain 927/4 GUTat10.1), UniProt Q388H8); test: biochemical; format: biochemical
[4] = target: A. fumigatus N-myristoyl transferase (Aspergillus fumigatus (strain ATCC MYA-4609 / CBS 101355 / FGSC A1100 / Af293) (Neosartorya fumigata), UniProt Q9UVX3); test: biochemical; format: biochemical; conditions: read-out: IC50 (μM) NMT Enzyme (AfNMT)
human NMT-1 = human NMT-1 (Homo sapiens (Human), UniProt P30419); test: NMT enzyme inhibition scintillation proximity assay, human NMT-1; format: biochemical
[5] = target: L. major N-myristoyl transferase (Leishmania major, UniProt Q4Q5S8); format: biochemical; conditions: Leishmania major NMT; value in parentheses; read-out: IC50 (μM) NMT Enzyme (LmNMT)
[6] = T. brucei brucei, blood stream form, variant 221
[7] = brain, single i.v. dose 2.0 mg/kg, read-out: Conc (ng/ml in brain)
[8] = whole blood, single i.v. dose 2.0 mg/kg, read-out: Conc (ng/ml in blood)
[9] = value with no enzyme tag in the cell, taken as T. brucei NMT, read-out: IC50 (μM) NMT Enzyme
[10] = value printed without enzyme tag in the NMT Enzyme column (taken as T. brucei NMT), read-out: IC50 (μM) NMT Enzyme
[11] = Human NMT-1, value in parentheses, read-out: IC50 (μM) NMT Enzyme (HuNMT-1)
[12] = read-out: IC50 (μM) NMT Enzyme (T. brucei NMT)
[13] = T. brucei NMT, value without parentheses, read-out: IC50 (μM) NMT Enzyme (T. brucei NMT)

Sequence of human NMT-1 (P30419 whole entry): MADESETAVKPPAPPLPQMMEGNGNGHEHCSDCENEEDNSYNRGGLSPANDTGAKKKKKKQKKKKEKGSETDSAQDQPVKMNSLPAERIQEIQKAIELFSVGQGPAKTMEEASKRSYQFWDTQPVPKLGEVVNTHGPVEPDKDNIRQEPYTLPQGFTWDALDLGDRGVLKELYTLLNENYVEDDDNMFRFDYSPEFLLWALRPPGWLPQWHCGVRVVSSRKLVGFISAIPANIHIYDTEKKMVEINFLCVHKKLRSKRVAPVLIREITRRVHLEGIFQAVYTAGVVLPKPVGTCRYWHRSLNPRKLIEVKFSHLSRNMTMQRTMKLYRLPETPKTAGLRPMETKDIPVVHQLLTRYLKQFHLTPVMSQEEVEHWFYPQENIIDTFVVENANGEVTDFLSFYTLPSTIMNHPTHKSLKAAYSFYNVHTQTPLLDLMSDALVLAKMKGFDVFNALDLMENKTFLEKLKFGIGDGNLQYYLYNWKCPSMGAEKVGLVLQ
Sequence of T. brucei N-myristoyl transferase (Q388H8 1-446): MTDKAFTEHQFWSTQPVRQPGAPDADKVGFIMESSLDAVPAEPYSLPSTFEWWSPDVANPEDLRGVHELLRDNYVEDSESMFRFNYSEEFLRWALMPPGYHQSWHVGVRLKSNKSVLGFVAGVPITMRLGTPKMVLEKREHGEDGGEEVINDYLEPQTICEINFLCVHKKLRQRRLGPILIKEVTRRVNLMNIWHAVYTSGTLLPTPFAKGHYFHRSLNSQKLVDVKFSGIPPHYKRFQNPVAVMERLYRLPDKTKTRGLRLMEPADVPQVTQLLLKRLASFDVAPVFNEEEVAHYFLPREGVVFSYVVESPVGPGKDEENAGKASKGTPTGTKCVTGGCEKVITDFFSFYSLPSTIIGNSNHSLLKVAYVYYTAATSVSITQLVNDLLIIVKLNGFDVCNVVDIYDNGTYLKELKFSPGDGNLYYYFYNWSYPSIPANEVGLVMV
Sequence of L. major N-myristoyl transferase (Q4Q5S8 1-421): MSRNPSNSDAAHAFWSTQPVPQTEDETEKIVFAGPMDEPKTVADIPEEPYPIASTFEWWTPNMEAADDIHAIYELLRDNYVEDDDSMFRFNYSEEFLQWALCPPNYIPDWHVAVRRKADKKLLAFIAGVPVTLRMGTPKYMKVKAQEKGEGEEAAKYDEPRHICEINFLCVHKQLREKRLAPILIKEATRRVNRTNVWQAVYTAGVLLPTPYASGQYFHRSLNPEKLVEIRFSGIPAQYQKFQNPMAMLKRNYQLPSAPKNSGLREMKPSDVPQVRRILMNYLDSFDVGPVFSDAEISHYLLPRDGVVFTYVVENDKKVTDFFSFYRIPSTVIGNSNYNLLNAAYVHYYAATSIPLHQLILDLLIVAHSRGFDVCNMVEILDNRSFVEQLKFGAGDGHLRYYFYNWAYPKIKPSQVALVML

IC50 (human NMT-1; [11]) [µM] | IC50 [5] [µM] | IC50 [3, 13] [µM] | SMILES | ED50 (μM) T. brucei [1, 6] [µM] | other results
– | – | – | Cc1nn(C)c(C)c1N(CC(F)(F)F)[S+](=O)([O-])c1c(Cl)cc(CCCC2CCN(C)CC2)cc1Cl [DDD100153, 2,6-dichloro-4-(3-(1-methylpiperidin-4-yl)propyl)-N-(2,2,2-trifluoroethyl)-N-(1,3,5-trimethyl-1H-pyrazol-4-yl)benzenesulfonamide] | 0.023 | Kp at 5 min ([2]; single i.v. dose 2.0 mg/kg): 0.64; concentration at 5 min [2, 7]: 171 ng/mL; concentration at 5 min [2, 8]: 269 ng/mL
– | – | – | Cc1nn(C)c(C)c1N[S+](=O)([O-])c1ccc(-c2cccc(Cn3ccnc3)c2)cc1 [DDD88006, 3′-imidazol-1-ylmethyl-biphenyl-4-sulfonic acid (1,3,6-trimethyl-1H-pyrazol-4-yl)-amide] | – | IC50 [3, 9]: 0.35 µM; IC50 [4]: 4.2 µM; ED50 (μM) T. brucei ([1]; T. brucei cell growth): 3.9 µM
– | – | – | Cc1c(N[S+](=O)([O-])c2ccc(-c3cccc(CN(C)C)c3)cc2)c(CC(C)C)nn1C [DDD99742] | – | ED50 (μM) T. brucei ([1]; T. brucei cell growth): 0.019 µM; Kp at 5 min ([2]; single i.v. dose 2.0 mg/kg): 0.66; concentration at 5 min [2, 7]: 422 ng/mL; concentration at 5 min [2, 8]: 642 ng/mL
– | – | – | Cc1nn(C)c(C)c1N(C)[S+](=O)([O-])c1ccc(CCCCCCn2ccnc2)cc1 [DDD99754] | – | IC50 (human NMT-1; HuNMT-1): 2.1 µM; IC50 [3, 9]: 0.105 µM; IC50 [4]: > 1 µM; ED50 (μM) T. brucei ([1]; T. brucei cell growth): >1 µM
– | – | – | Cc1nn(C)c(C)c1N(C)[S+](=O)([O-])c1c(Cl)cc(Br)cc1Cl [DDD73490, 4-Bromo-2,6-dichloro-N-methyl-N-(1,3,5-trimethyl-1H-pyrazol-4-yl)-benzenesulfonamide] | – | IC50 (human NMT-1; HuNMT-1): 4 µM; IC50 [3, 10]: 0.36 µM; IC50 ([4]; AfNMT): 3.9 µM; ED50 (μM) T. brucei ([1]; T. brucei cell growth): 2.8 µM; Kp at 5 min ([2]; single i.v. dose 0.33 mg/kg): 6; concentration at 5 min ([2]; brain, single i.v. dose 0.33 mg/kg, read-out: Conc (ng/ml in brain)): 314 ng/mL; concentration at 5 min ([2]; whole blood, single i.v. dose 0.33 mg/kg, read-out: Conc (ng/ml in blood)): 52 ng/mL
2.4 | 0.906 | 0.262 | Cc1nn(C)c(C)c1N[S+](=O)([O-])c1ccc(-c2cccc(-c3nccn3C)c2)cc1 [DDD100878] | >1 | –
– | – | – | CCN(CC)Cc1cccc(-c2ccc([S+](=O)([O-])Nc3c(CC(C)C)nn(C)c3C)cc2)c1 [DDD88638] | – | IC50 [3, 9]: 0.009 µM; ED50 (μM) T. brucei ([1]; T. brucei cell growth): 0.084 µM; Kp at 5 min ([2]; single i.v. dose 2.0 mg/kg): 1.35; concentration at 5 min [2, 7]: 378 ng/mL; concentration at 5 min [2, 8]: 281 ng/mL
> 1 | > 1 | 7.95 | CCCc1nn(C)c(C)c1N[S+](=O)([O-])c1ccc(Br)cc1 [DDD100871] | 51.0 | –
> 1 | > 1 | 0.86 | Cc1c(N[S+](=O)([O-])c2ccc(-c3cccc(CN(C)Cc4cccnc4)c3)cc2)c(CC(C)C)nn1C [DDD100796] | >1 | –
> 1 | 0.672 | 0.023 | Cc1c(N[S+](=O)([O-])c2ccc(CCCCC3CCN(C)CC3)cc2)c(Cc2ccccc2)nn1C [DDD100883] | 0.427 | –
2.6 | 1.59 | 0.803 | Cc1nn(C)c(C)c1N[S+](=O)([O-])c1ccc(-c2cccc(-c3c[nH]cn3)c2)cc1 [DDD100879] | >1 | –
– | 0.011 | 0.004 | Cc1c(N[S+](=O)([O-])c2ccc(-c3ccc4c(c3)CNCC4)cc2)c(CC(C)C)nn1C [DDD100801] | 0.014 | –
– | 0.019 | 0.004 | Cc1c(N[S+](=O)([O-])c2ccc(-c3cccc(CNCCc4cccnc4)c3)cc2)c(CC(C)C)nn1C [DDD100869] | 5.7 | –
– | – | – | COc1cc2c(cc1OC)CN(c1ccc([S+](=O)([O-])Nc3c(C)nn(C)c3C)cn1)CC2 [DDD73476] | – | IC50 (human NMT-1; HuNMT-1): 2.3 µM; IC50 [3, 10]: 0.32 µM; IC50 ([4]; AfNMT): 4.8 µM; ED50 (μM) T. brucei ([1]; T. brucei cell growth): 1.8 µM
> 1 | > 1 | 1.08 | Cc1nn(C)c(C)c1N[S+](=O)([O-])c1ccc(-c2cccc(-c3ncc[nH]3)c2)cc1 [DDD100884] | >1 | –
– | 0.059 | 0.006 | Cc1c(N[S+](=O)([O-])c2ccc(-c3ccc4c(c3)CN(C)CC4)cc2)c(CC(C)C)nn1C [DDD100876] | 0.014 | –
> 1 | > 1 | 2.68 | CCCCc1nn(C)c(C)c1N[S+](=O)([O-])c1ccc(Br)cc1 [DDD100875] | 20.5 | –
– | – | – | Cc1c(NS(=O)(=O)c2ccc(CCCC3CCN(C)CC3)cc2)c(CC(C)C)nn1C [DDD99837, N-(3-isobutyl-1,5-dimethyl-1H-pyrazol-4-yl)-4-(3-(1-methylpiperidin-4-yl)propyl)benzenesulfonamide] | 0.036 | Kp at 5 min ([2]; single i.v. dose 3.0 mg/kg): 0.26; concentration at 5 min ([2]; brain, single i.v. dose 3.0 mg/kg, read-out: Conc (ng/ml in brain)): 99 ng/mL; concentration at 5 min ([2]; whole blood, single i.v. dose 3.0 mg/kg, read-out: Conc (ng/ml in blood)): 388 ng/mL
– | – | – | Cc1nn(C)c(C)c1NS(=O)(=O)c1ccc(N2CCc3cccc(N)c3C2)nc1 [DDD73498, 6-(8-Amino-3,4-dihydro-1H-isoquinolin-2-yl)-pyridine-3-sulfonic acid (1,3,5-trimethyl-1H-pyrazol-4-yl)-amide] | – | IC50 (human NMT-1; HuNMT-1): 4.3 µM; IC50 [3, 10]: 0.32 µM; IC50 ([4]; AfNMT): 14.7 µM; ED50 (μM) T. brucei ([1]; T. brucei cell growth): 2.6 µM
– | 1.9 | 0.097 | Cc1c(N[S+](=O)([O-])c2ccc(-c3ccc(CN(C)C)cc3)cc2)c(CC(C)C)nn1C [DDD100865] | 7.3 | –
– | – | – | CCN(CC)Cc1cccc(-c2ccc([S+](=O)([O-])N(C)c3c(C)nn(C)c3C)cc2)c1 [DDD88195, 3′-Diethylaminomethyl-biphenyl-4-sulfonic acid methyl-(1,3,5-trimethyl-1H-pyrazol-4-yl)-amide] | – | IC50 [3, 9]: 0.05 µM; ED50 (μM) T. brucei ([1]; T. brucei cell growth): 0.51 µM; Kp at 5 min ([2]; single i.v. dose 1.0 mg/kg): 0.8; concentration at 5 min ([2]; brain, single i.v. dose 1.0 mg/kg, read-out: Conc (ng/ml in brain)): 93 ng/mL; concentration at 5 min ([2]; whole blood, single i.v. dose 1.0 mg/kg, read-out: Conc (ng/ml in blood)): 116 ng/mL
> 1 | > 1 | 13.8 | Cc1nn(C)c(C)c1N[S+](=O)([O-])c1ccc(-c2cccc(-c3cn(C)cn3)c2)cc1 [DDD100873] | >1 | –
> 1 | > 1 | 0.74 | Cc1nn(C)c(C)c1N[S+](=O)([O-])c1ccc(-c2cccc(-c3nccn3C)c2)cc1 [DDD100874] | >1 | –
– | – | – | Cc1nn(C)c(C)c1N(C(F)F)[S+](=O)([O-])c1c(Cl)cc(CCCC2CCN(C)CC2)cc1Cl [DDD100097, 2,6-dichloro-N-(difluoromethyl)-4-(3-(1-methylpiperidin-4-yl)propyl)-N-(1,3,5-trimethyl-1H-pyrazol-4-yl)benzenesulfonamide] | 0.001 | Kp at 5 min ([2]; single i.v. dose 2.0 mg/kg): 1.5; concentration at 5 min [2, 7]: 335 ng/mL; concentration at 5 min [2, 8]: 224 ng/mL
– | 0.091 | 0.006 | Cc1c(N[S+](=O)([O-])c2ccc(-c3cccc(C(C)(C)N(C)C)c3)cc2)c(CC(C)C)nn1C [DDD100863] | 0.015 | –

SMILES | IC50 (human NMT-1; [11]) [µM] | IC50 [5] [µM] | IC50 [3, 13] [µM] | ED50 (μM) T. brucei [1, 6] [µM] | other results
Cc1nn(C)c(C)c1N(C(F)F)[S+](=O)([O-])c1c(Cl)cc(CCCCCCn2ccnc2)cc1Cl [DDD100156] | 1.1 | 0.048 | – | 0.148 | IC50 [3, 12]: 0.016 µM
Cc1c(N[S+](=O)([O-])c2ccc(Br)cc2)c(CCc2ccccc2)nn1C [DDD100880] | > 1 | > 1 | > 1 | 21.4 | –
Cc1c(N[S+](=O)([O-])c2ccc(-c3cccc(CNCCc4ccccn4)c3)cc2)c(CC(C)C)nn1C [DDD100882] | – | > 1 | 0.305 | 2.45 | –
Cc1c(N[S+](=O)([O-])c2ccc(CCCC3CCN(C)CC3)cc2)c(Cc2ccccc2)nn1C [DDD100881] | – | 0.778 | 0.02 | 0.234 | –
Cc1c(N[S+](=O)([O-])c2ccc(-c3ccccc3CN(C)C)cc2)c(CC(C)C)nn1C [DDD100862] | – | > 1 | 0.358 | >1 | –
Cc1nn(C)c(C)c1N(C(F)F)[S+](=O)([O-])c1c(Cl)cc(CCCCCCn2ccnc2C(C)C)cc1Cl [DDD100791] | 2.1 | 0.044 | – | 0.344 | IC50 [3, 12]: 0.21 µM
